The species named for data set [1] is Mus musculus. In words: Radioprotective activity against 0 to 7 Gy gamma radiation-induced death in mouse 32Dcl3 cells at 10 uM treated 1 hr prior to irradiation after 7 days by microscopy. The class given is functional, cell-based.
Data set [2] deals with Mus musculus. Put plainly: Radioprotective activity against 9.75 Gy gamma radiation-induced death in C57BL/6NHsd mouse assessed as increase in survival rate at 1 mg/kg, ip administered 10 mins prior to irradiation. It is filed as functional, organism-based. Set-up: dose 1 mg/kg.
Data set [3] relates to Serum. In words: Metabolic stability in mouse serum assessed as hydrolysis to resveratrol with in 20 secs by HPLC analysis. The following applies: 20 s. The class given is ADME, cell-free.
Data set [4] is described as follows: Metabolic stability in mouse serum assessed as half life in presence of 1:1:8 mixture of EtOH/Cremophor EL/H2O by HPLC analysis. It is filed as ADME, cell-free.
The test system of data set [5] is Mus musculus. In words: Radioprotective activity against 9.75 Gy gamma radiation-induced death in C57BL/6NHsd mouse assessed as increase in survival rate at 25 mg/kg, ip administered 10 mins after irradiation daily for 4 days. It is filed as functional, organism-based. Set-up: dose 25 mg/kg.
In data set [6] the test system is Mus musculus. In words: Radioprotective activity against 9.75 Gy gamma radiation-induced death in C57BL/6NHsd mouse assessed as survival rate at 10 mg/kg, ip administered 10 mins prior to irradiation. It is filed as functional.
The nature of data set [7]: Stability of the compound assessed as half life. It is filed as physicochemical.
The subject of data set [8] is Serum. Put plainly: Metabolic stability in mouse serum up to 27 hrs by HPLC analysis. It is filed as ADME, cell-free.

Structures are written as SMILES. Activity calls are given as the source filed them. No cut-off for these calls is given here.

Drawing on ChEMBL document CHEMBL1821602, “The Use of 3,5,4'-Tri-O-acetylresveratrol as a Potential Pro-drug for Resveratrol Protects Mice from γ-Irradiation-Induced Death” (ACS Med Chem Lett, 2011), this text covers Activity, Stability and half-life for four compounds.

Take `CCCOC(=O)c1cc(O)c(O)c(O)c1`: in data set [1], the result was inactive.
Consider `CC(=O)Oc1ccc(/C=C/c2cc(OC(C)=O)cc(OC(C)=O)c2)cc1` [TRIACETYLRESVERATROL], for which the outcome in data set [2] and in data set [5] was inactive. Further, the Stability result in data set [3] is given as “Unstable”. Moreover, in data set [4], the half-life was determined as 48 min. In addition, the Activity in data set [6] (route intraperitoneal) is listed as 80%.
In the case of `O=C(O[C@@H]1Cc2c(O)cc(O)cc2O[C@H]1c1ccc(O)c(O)c1)c1cc(O)c(O)c(O)c1`, the outcome in data set [1] was inactive.
`Oc1ccc(/C=C/c2cc(O)cc(O)c2)cc1` [RESVERATROL]: the outcome in data set [2], in data set [5] and in data set [6] was inactive. For the same compound, the half-life in data set [7] stood at 8 min. For the same compound, the outcome in data set [1] was Active. For the same compound, the Stability entry in data set [8] is listed as “Stable”.
